Laboratory results published in patent US20060166867A1, “Novel conjugates of polysaccharides and uses thereof” (priority 2003, published 2006).
Several values for one entry are separate records, joined by “and”; a condition that tells them apart may be missing. Equal entries are not always repeated. Where two headings read alike, the source gives them in different places.

Tests used:
[1] = tested on: K. pneumoniae-ESBL positive; settings: Gram negative clinical isolate
Enterobacter cloacae = settings: Gram negative clinical isolate
CXCR4 = target: T1, CXCR4 (Homo sapiens, UniProt P61073); assay: Competition with 12G5 mAb binding to CXCR4 on MT2 cells (flow cytometry); settings: 80 μM; read-out: % Inhibition of 12G5 mAb binding to CXCR4
T1 construct: incubated at 4° C. with anti-CXCR4 mAb, 12G5, conjugated to phycoerithrine (PE); endogenous in cells; host or cells: MT2 cells
T1 sequence (P61073 whole entry): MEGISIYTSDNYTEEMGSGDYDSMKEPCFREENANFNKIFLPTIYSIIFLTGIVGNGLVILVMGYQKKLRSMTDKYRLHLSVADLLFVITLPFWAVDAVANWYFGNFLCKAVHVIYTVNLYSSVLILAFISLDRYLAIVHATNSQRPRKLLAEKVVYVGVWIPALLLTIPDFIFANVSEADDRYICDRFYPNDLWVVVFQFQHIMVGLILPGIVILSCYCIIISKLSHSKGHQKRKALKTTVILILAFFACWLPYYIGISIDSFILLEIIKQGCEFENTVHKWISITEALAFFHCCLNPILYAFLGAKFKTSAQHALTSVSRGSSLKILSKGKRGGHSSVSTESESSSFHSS
Method: Interaction of pAACs and arginine peptides with CXCR4 coreceptor: Interactions of pAACs and arginine-peptides with CXCR4 were determined by flow cytometry (FACS-Scan, Becton Dickinson) as previously described (Litovich (2001) supra). In brief, 0.5×10^6 MT2 cells were washed with ice-cold PBS containing 0.1% sodium azide (wash buffer) and were incubated at 4° C. with anti-CXCR4 mAb, 12G5, conjugated to phycoerithrine (PE), in the absence or presence of different concentrations of pAACs and arginine peptides. After 30 minutes of incubation, the cells were washed with ice-cold wash buffer and fixed in PBS containing 1% paraformaldehyde. Non-specific fluorescence was assessed using an isotype control. For each sample 10,000 events were acquired. Data were analyzed and processed using CellQuest™ software (Becton Dickinson).

E. Coli-ESBL positive = settings: Gram negative clinical isolate
[2] = tested on: P. aeruginosa-gentamicin^s, meropenem^s; settings: Gram negative clinical isolate
[3] = tested on: Enterococcus faecalis (clinical isolate); settings: Gram positive clinical isolate
cMAGI cells = settings: FITC derivatives, 5 and 15 μM, 30 minutes at 37° C.
Method: Cellular uptake using pAACs and polyarginine peptide-fluorescent derivatives: cMAGI cells were incubated in a 8-well plate (2000 cells/well) with a pAACs-FITC or a peptide-FITC derivative at a final concentration of 5 and 15 μM, for 30 minutes at 37° C. After incubation, cells were washed 3 times with phosphate buffered saline 3 times and were subjected to confocal microscopy measurements (Olympus IX70 FV500 confocal laser scanning microscope).

E. coli U3075921 = assay: MIC, broth microdilution; format: cell-based, Escherichia coli; settings: clinical isolate, Table 7
Method: (§1) Minimal Inhibition Concentration (MIC) measurements: The Minimal Inhibitory Concentration (MIC) was generally determined by the Broth Microdilution method (based on the protocol described in Clinical and Laboratory Standard Institute (CLSI) NCCLS (2003) M7-A6), as follows:
(§2) A stock solution of each of the tested compounds was prepared by diluting the compound to a 2,560 μg/ml concentration with an appropriate solvent. The stock solution was then serially 2-fold diluted in 96-well microdilution trays using Cation-Adjusted Mueller-Hinton Broth (CAMHB) until reaching the desired range of concentrations, whereas each well contained double the final working concentration. Each row further had one growth control well (medium+inoculum only), and one sterility control well (medium+tested compound). Plates were stored at −70° C. until used.
(§3) The tested microorganisms were used as fresh overnight cultures on blood agar (for gram-positive organisms) or MacConkey agar (for gram-negatives). A standardized inoculum suspension was prepared by the direct colony suspension method, using sterile saline (equivalent to a 0.5 McFarland standard).
(§4) Thus, 50 μl of the inoculum suspension were added to each tested well (except for the sterility control well), and […] was performed during 18-24 hours (depending on the tested microorganism or compound) at 35° C.

[4] = tested on: Klebsiella pneumoniae ATCC 13883; settings: Gram negative reference strain
Enterobacter aerogenes = settings: Gram negative clinical isolate
[5] = tested on: Proteus mirabilis ATCC 7002; settings: Gram negative reference strain
[6] = tested on: Pseudomonas aeruginosa ATCC 27853; settings: Gram negative reference strain
[7] = tested on: P. aeruginosa-gentamicin^r, meropenem^r; settings: Gram negative clinical isolate
VRE faecium = settings: clinical isolate, Table 7
E. Coli-ESBL negative = settings: Gram negative clinical isolate
S. epidermidis MRSE = settings: Gram positive clinical isolate
[8] = tested on: Staphylococcus aureus ATCC 24213; settings: Gram positive reference strain
[9] = tested on: A. baumannii-amikacin^r, meropenem^r; settings: Gram negative clinical isolate
[10] = tested on: Escherichia coli ATCC 25922; settings: Gram negative reference strain
S. aureus MRSA = settings: Gram positive clinical isolate
[11] = tested on: Streptococcus bovis ATCC 9809; assay: MIC, broth microdilution; format: cell-based; settings: Gram positive reference strain
Method: as §1, §2, §3, §4

HIV-1 IIIB = assay: microbe, parasite or virus in culture; format: cell-based; settings: Table 3; against HIV-1 IIIB virus; read-out: EC50
Method: Inhibition of HIV-1 cell replication was tested using the cMAGI assay, which is based on the ability of HIV-1 TAT to transactivate the expression of an integrated β-galactosidase reporter gene driven by the HIV-LTR (B. Chackeria et al., J. Virol., (1997) 71, 3932; Collins et al., Nat. Med. (2000) 6, 475). The β-galactosidase reporter is modified to remain localized in the nucleus where it can be detected with the X-gal (5-bromo-4-chloro-3indoyl-β-D-galactopyranoside) substrate as an intense nuclear stain within a few days of infection.
(§5) HIV-1 isolates were propagated by subculture in MT2 cells (Litovchick et al. (2001) supra). Aliquots of cell-free culture supernatants were used as viral inoculum. PAACs were dissolved in the RPMI 1640 medium. Cytotoxicity determinations were carried out in MT2 cells by trypan blue exclusion assay. Viral inhibition was determined by incubating MT2 or cMAGI HIV-1 reporter cells with 0.2-0.5 multiplicity of infection of HIV-1 wild type or resistant virus for 4 days at 37° C. in the presence or absence of various concentrations of pAACs. HIV-1 infection of cMAGI cells was determined by counting the number of HIV-1-infected cells (stained blue). The cytopathic effects of the viral infection of MT2 cells were also analyzed by microscopic assessment of syncytium formation.

S. aureus MSSA = settings: Gram positive clinical isolate
[12] = tested on: A. baumannii-amikacin^s, meropenem^s; settings: Gram negative clinical isolate
in vitro = format: cell-based; settings: human, MT2 cells; Table 3; trypan blue exclusion; read-out: Cytotoxicity
Method: Cytotoxicity of the various pAACs was determined using the trypan blue exclusion assay. In brief, a sample of the cell suspension was diluted 1:1 (v/v) with 0.4% trypan blue and the cells were counted using a hemocytometer. Results are expressed as the percentage of dead cells.
as §5

Serratia marcescens = settings: Gram negative clinical isolate
[13] = tested on: Moraxella catarrhalis ATCC 25238 (Branhamella); settings: Gram negative reference strain
[14] = tested on: K. pneumoniae-ESBL negative; settings: Gram negative clinical isolate
S. epidermidis MSSE = settings: Gram positive clinical isolate
[15] = tested on: Acinetobacter baumannii ATCC 19606; settings: Gram negative reference strain
E. coli U23773^r = settings: Gram negative clinical isolate
P. aeruginosa R17093 = assay: MIC, broth microdilution; format: cell-based, Pseudomonas aeruginosa; settings: Gram negative clinical isolate; for MIC: read-out: Minimum Inhibitory Concentration
S. epidermidis B32954 = assay: MIC, broth microdilution; format: cell-based, Staphylococcus epidermidis; settings: Gram positive clinical isolate
A. baumannii R16998 = settings: Gram negative clinical isolate
[16] = tested on: Enterococcus faecium (clinical isolate); assay: MIC, broth microdilution; format: cell-based; settings: Gram positive clinical isolate
[17] = tested on: Enterobacter cloacae W25161; settings: Gram negative clinical isolate
[18] = tested on: Enterococcus faecalis B84939-vancomycin^r; assay: MIC, broth microdilution; format: cell-based; settings: Gram positive clinical isolate
[19] = read-out: Minimum Inhibitory Concentration

Molecule | Minimum Inhibitory Concentration [1] | Minimum Inhibitory Concentration (Enterobacter cloacae) | Minimum Inhibitory Concentration (E. Coli-ESBL positive) | Minimum Inhibitory Concentration [2] | Minimum Inhibitory Concentration [3] | Minimum Inhibitory Concentration (Enterobacter aerogenes) | Minimum Inhibitory Concentration [7] | Minimum Inhibitory Concentration (E. Coli-ESBL negative) | Minimum Inhibitory Concentration (S. epidermidis MRSE) | Minimum Inhibitory Concentration [9] | Minimum Inhibitory Concentration (S. aureus MRSA) | EC50 (HIV-1 IIIB) [µM] | Minimum Inhibitory Concentration (S. aureus MSSA) | Minimum Inhibitory Concentration [12] | Minimum Inhibitory Concentration (Serratia marcescens) | Minimum Inhibitory Concentration [14] | Minimum Inhibitory Concentration (S. epidermidis MSSE) | also measured
N=C(N)NCCC[C@H](NC(=O)[C@H](CCCNC(=N)N)NC(=O)[C@H](CCCNC(=N)N)NC(=O)[C@H](CCCNC(=N)N)NC(=O)[C@H](CCCNC(=N)N)NC(=O)[C@H](CCCNC(=N)N)NC(=O)[C@H](CCCNC(=N)N)NC(=O)[C@H](CCCNC(=N)N)NC(=O)[C@@H](N)CCCNC(=N)N)C(=O)O [Compound 5, L-Arg-9-mer-NH2] | > 256.0 mg/liter and 126.50 μM | > 256.0 mg/liter and 126.50 μM | 256.0 mg/liter and 126.50 μM | > 256.0 mg/liter and 126.50 μM | 128.0 mg/liter and 63.25 μM | > 256.0 mg/liter and 126.50 μM | > 256.0 mg/liter and 126.50 μM | > 256.0 mg/liter and 126.50 μM | 32.0 mg/liter and 15.81 μM | > 256.0 mg/liter and 126.50 μM | > 128.0 mg/liter and 63.25 μM | 33 | 128.0 mg/liter and 63.25 μM | > 256.0 mg/liter and 126.50 μM | > 256.0 mg/liter and 126.50 μM | > 256.0 mg/liter and 126.50 μM | 12.0 mg/liter and 5.93 μM | inhibition at 80 µM (CXCR4): 52.8%; cellular uptake (cMAGI cells): lower uptake efficiency; Minimum Inhibitory Concentration (E. coli U3075921): > 256.0 mg/L; Minimum Inhibitory Concentration [4]: > 256.0 mg/liter and 126.50 μM; Minimum Inhibitory Concentration [5]: > 256.0 mg/liter and 126.50 μM; Minimum Inhibitory Concentration [6]: > 256.0 mg/liter and 126.50 μM; Minimum Inhibitory Concentration (VRE faecium): > 128.0 mg/L; Minimum Inhibitory Concentration [8]: 128.0 mg/liter and 63.25 μM; Minimum Inhibitory Concentration [10]: > 256.0 mg/liter and 126.50 μM; Minimum Inhibitory Concentration [11]: 128.0 mg/L; CC50 (in vitro): 120 µM; Minimum Inhibitory Concentration [13]: 32.0 mg/liter and 15.81 μM; Minimum Inhibitory Concentration [15]: > 256.0 mg/liter and 126.50 μM
L-Arg-9-mer-neomycin [Compound 8] | 1.5 mg/liter and 0.51 μM | 8.0 mg/liter and 2.74 μM | 8.0 mg/liter and 2.74 μM | 48.0 mg/liter and 16.44 μM | 256.0 mg/liter and 87.67 μM | 8.0 mg/liter and 2.74 μM | 128.0 mg/liter and 43.83 μM | 4.0 mg/liter and 1.37 μM | 0.5 mg/liter and 0.17 μM | 128.0 mg/liter and 43.83 μM | 2.0 mg/liter and 0.68 μM | 30 ± 7 | 4.0 mg/liter and 1.37 μM | 6.0 mg/liter and 2.06 μM | 4.0 mg/liter and 1.37 μM | 3.0 mg/liter and 1.03 μM | 0.5 mg/liter and 0.17 μM | Minimum Inhibitory Concentration (E. coli U23773^r): 96.0 mg/liter and 32.88 μM; Minimum Inhibitory Concentration (E. coli U23773^r; listed as L-Neo-9-mer): 32.88 µM; Minimum Inhibitory Concentration (P. aeruginosa R17093): 128.0 mg/L; MIC (P. aeruginosa R17093; listed as L-Neo-9-mer): 43.83 µM; MIC (P. aeruginosa R17093): 43.83 µM; Minimum Inhibitory Concentration (S. epidermidis B32954): 0.5 mg/L; MIC (S. epidermidis B32954; [19]): 0.17 µM; Minimum Inhibitory Concentration ([9]; listed as L-Neo-9-mer): 57.92 µM; Minimum Inhibitory Concentration (A. baumannii R16998): 128.0 mg/liter and 43.83 μM; Minimum Inhibitory Concentration [16]: 32.0 mg/L; MIC [16, 19]: 10.96 µM; Minimum Inhibitory Concentration [17]: 8.0 mg/liter and 2.74 μM; Minimum Inhibitory Concentration [18]: 32.0 mg/L; MIC [18, 19]: 10.96 µM
